System: 521955-158-R6-J3-PDC complex spheroid growth, % test/control
Experiment: Anticancer human tumor 521955-158-R6-J3-PDC patient-derived pancreatic carcinoma cell line growth inhibition [Asc]
Conditions: for IC50: curve of first compound; for viability, T/C: stronger effect = lower value; active means viability on the fitted dose curve at most 10% of control; inactive means the rest
Procedure, shortened: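 Stromal components (HUVEC and hMSC) are co-assembled with the cancer cells into multicellular spheroids. Drugs are then added singly or paired, at concentrations falling by half-log increments from a clinically achievable maximum, capped at 10 microM without known Cmax.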

[1] = second compound 0.0316 µM, first compound 0.0316 µM
[2] = second compound 0.0316 µM, first compound 0.1 µM
[3] = second compound 0.0316 µM, first compound 0.316 µM
[4] = second compound 0.0316 µM, first compound 1 µM
[5] = second compound 0.1 µM, first compound 0.0316 µM
[6] = second compound 0.1 µM, first compound 0.1 µM
[7] = second compound 0.1 µM, first compound 0.316 µM
[8] = second compound 0.1 µM, first compound 1 µM
[9] = second compound 0.316 µM, first compound 0.0316 µM
[10] = second compound 0.316 µM, first compound 0.1 µM
[11] = second compound 0.316 µM, first compound 0.316 µM
[12] = second compound 0.316 µM, first compound 1 µM
[13] = second compound 1 µM, first compound 0.0316 µM
[14] = second compound 1 µM, first compound 0.1 µM
[15] = second compound 1 µM, first compound 0.316 µM
[16] = second compound 1 µM, first compound 1 µM
[17] = second compound 3.16 µM, first compound 0.0316 µM
[18] = second compound 3.16 µM, first compound 0.1 µM
[19] = second compound 3.16 µM, first compound 0.316 µM
[20] = second compound 3.16 µM, first compound 1 µM
[21] = second compound 10 µM, first compound 0.0316 µM
[22] = second compound 10 µM, first compound 0.1 µM
[23] = second compound 10 µM, first compound 0.316 µM
[24] = second compound 10 µM, first compound 1 µM
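Further: spheroids exposed to compounds for 7 days.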
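Wherever viability, T/C is given: 100% = DMSO vehicle control wells.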

O=C(c1cc(Cc2n[nH]c(=O)c3ccccc23)ccc1F)N1CCN(C(=O)C2CC2)CC1 + Cc1c(S(C)(=O)=O)c(-c2cc(F)cc(N3CCN(c4ccc(NS(=O)(=O)c5ccc(NC(CCN6CCC(C(=O)OCCCP(=O)(O)O)CC6)CSc6ccccc6)c(S(=O)(=O)C(F)(F)F)c5)cc4)CC3)c2)c(-c2ccc(Cl)cc2)n1C(C)C
inactive: viability, T/C [1] 77.8% | viability, T/C [2] 86.6% | viability, T/C [3] 87.5% | viability, T/C [4] 83.3% | viability, T/C (second compound 0.0316 µM, first compound 3.16 µM) 75.6% | viability, T/C (second compound 0.0316 µM, first compound 10 µM) 76.8% | viability, T/C [5] 88.4% | viability, T/C [6] 71.9% | viability, T/C [7] 64% | viability, T/C [8] 62.6% | viability, T/C (second compound 0.1 µM, first compound 3.16 µM) 60.7% | viability, T/C (second compound 0.1 µM, first compound 10 µM) 54% | viability, T/C [9] 56.4% | viability, T/C [10] 61.7% | viability, T/C [11] 52.6% | viability, T/C [12] 48.6% | viability, T/C (second compound 0.316 µM, first compound 3.16 µM) 41.7% | viability, T/C (second compound 0.316 µM, first compound 10 µM) 35% | viability, T/C [13] 41% | viability, T/C [14] 34.6% | viability, T/C [15] 31.1% | viability, T/C [16] 30.1% | viability, T/C (second compound 1 µM, first compound 3.16 µM) 32.4% | viability, T/C (second compound 1 µM, first compound 10 µM) 27.2% | viability, T/C [17] 23.3% | viability, T/C [18] 19.1% | viability, T/C [19] 17.1% | viability, T/C [20] 19.3% | viability, T/C (second compound 3.16 µM, first compound 3.16 µM) 16% | viability, T/C (second compound 3.16 µM, first compound 10 µM) 13.4% | viability, T/C [21] 14.4% | viability, T/C [22] 15.4% | viability, T/C [23] 11.7% | viability, T/C [24] 13% | viability, T/C (second compound 10 µM, first compound 3.16 µM) 10%
active: viability, T/C (second compound 10 µM, first compound 10 µM) 9.06%
786 nM: IC50 (second compound 0.316 µM)
> 10000 nM: IC50 (second compound 0.0316 µM) | IC50 (second compound 0.1 µM)
< 31.6 nM: IC50 (second compound 1 µM) | IC50 (second compound 3.16 µM) | IC50 (second compound 10 µM)

O=C(c1ccc(F)c(F)c1Nc1ccc(I)cc1F)N1CC(O)([C@@H]2CCCCN2)C1 + Cc1c(S(C)(=O)=O)c(-c2cc(F)cc(N3CCN(c4ccc(NS(=O)(=O)c5ccc(NC(CCN6CCC(C(=O)OCCCP(=O)(O)O)CC6)CSc6ccccc6)c(S(=O)(=O)C(F)(F)F)c5)cc4)CC3)c2)c(-c2ccc(Cl)cc2)n1C(C)C
inactive: viability, T/C (second compound 0.0316 µM, first compound 0.00316 µM) 78.6% | viability, T/C (second compound 0.0316 µM, first compound 0.01 µM) 83.5% | viability, T/C [1] 97.3% | viability, T/C [2] 85% | viability, T/C [3] 42.2% | viability, T/C [4] 26.7% | viability, T/C (second compound 0.1 µM, first compound 0.00316 µM) 79.8% | viability, T/C (second compound 0.1 µM, first compound 0.01 µM) 69.1% | viability, T/C [5] 84.2% | viability, T/C [6] 59.5% | viability, T/C [7] 35.3% | viability, T/C [8] 17.9% | viability, T/C (second compound 0.316 µM, first compound 0.00316 µM) 47.8% | viability, T/C (second compound 0.316 µM, first compound 0.01 µM) 46.7% | viability, T/C [9] 43.1% | viability, T/C [10] 36.8% | viability, T/C [11] 20.2% | viability, T/C (second compound 1 µM, first compound 0.00316 µM) 35.3% | viability, T/C (second compound 1 µM, first compound 0.01 µM) 39.4% | viability, T/C [13] 29.7% | viability, T/C [14] 20.5% | viability, T/C (second compound 3.16 µM, first compound 0.00316 µM) 19.1% | viability, T/C (second compound 3.16 µM, first compound 0.01 µM) 25% | viability, T/C [17] 19.6% | viability, T/C [18] 6.55% | viability, T/C (second compound 10 µM, first compound 0.00316 µM) 14.6% | viability, T/C (second compound 10 µM, first compound 0.01 µM) 11.5%
active: viability, T/C [12] 5.24% | viability, T/C [15] 6.12% | viability, T/C [16] 1.37% | viability, T/C [19] 1.36% | viability, T/C [20] 0.4% | viability, T/C [21] 7.74% | viability, T/C [22] 3.48% | viability, T/C [23] 1.23% | viability, T/C [24] 2.45%
257 nM: IC50 (second compound 0.0316 µM)
166 nM: IC50 (second compound 0.1 µM)
< 3.16 nM: IC50 (second compound 0.316 µM) | IC50 (second compound 1 µM) | IC50 (second compound 3.16 µM) | IC50 (second compound 10 µM)

From PubChem BioAssay AID1963451 (Molecular Pharmacology Branch, DTP, NCI, 2024)
